Test results from PMC12416277, “Phytochemical alkaloids orchestrate immunometabolism against viral infections” (National Science Review, 2025).
pEC50: −log10 of the molar value. Like-named read-outs stand apart in the source and are kept apart here.

Legend:
[1] = test system: STING; type: cell-based
[2] = test system: STING-dependent antiviral immune pathway; type: cell-based
[3] = test system: cholesterol metabolism genes; type: cell-based, human
[4] = test system: HSV-1; assay: microbe, parasite or virus in culture; type: cell-based, herpes simplex virus 1 (HSV-1); details: Human alphaherpesvirus 1, A549
[5] = test system: NPC1 and STING in lysosomal microdomains; assay: Lysosome immunoprecipitation with density gradient ultracentrifugation (LysoIP-DEG) in HepG2 cells; type: cell-based
Description: Figure 5. The dual functions of Tet to resist viral entry and activate antiviral immunity through the NPC1/STING axis. (a, b) Confocal analysis of Bio-Tet with CD63 (a) or NPC1 (b) in A549 cells, scale bar: 10 μm. (c) Binding affinity analysis of NPC1 with itraconazole, U18666A, or Tet was determined by SPR. (d, e) CETSA (d) and DARTS (e) analysis of NPC1 with Tet in HepG2 cells. (f) Streptavidin-covered beads with biotin, Bio-Tet, Bio-Tet + Tet were incubated with cell lysates. As indicated, the levels of NPC1 protein in bound proteins (IP) and total proteins (Input) were determined using immunoblotting. (g) Viral mRNA expression in siNPC1-transfected cells treated with Tet. (h) Viral mRNA expression in sgRNA-EV, sgRNA Npc1, and sgRNA Npc1 cells transfected with Flag-NPC1 treated with Tet. (i) Ifit1 and Ifit2 mRNA expression in sgRNA-EV, sgRNA Npc1, and sgRNA Npc1 cells transfected with Flag-NPC1 stimulated with DMXAA and Tet. (j) Schematic of LysoIP-DEG. (k) Immunoblotting analysis of the indicated proteins in LysoIP-DEG in Tet-treated HepG2 cells. (l) Schematic model of NPC1/STING axis-mediated viral inhibition by Tet. […] P values were calculated using one-way ANOVA (g, h, i). […]
The LysoIP-DEG was performed as previously described with minor modifications. […] The collected samples were dissolved in 50 µL 2 × SDS loading buffer and then assessed through western blotting analysis.

[6] = test system: VSV; type: cell-based, vesicular stomatitis virus (VSV)
[7] = test system: Ifnb1, Ifit1, Ifit2 and Ifi44 mRNA; assay: Ifnb1 and ISG mRNA in mouse lungs, livers, spleens after intraperitoneal injection; type: in vivo; details: intraperitoneal 30, 60 mg/kg/d, 24-48 h
[8] = test system: EMCV; assay: microbe, parasite or virus in culture; type: cell-based, encephalomyocarditis virus (EMCV); details: Cardiovirus A, A549

COc1ccc2cc1Oc1ccc(cc1)C[C@H]1c3cc(c(OC)cc3CCN1C)Oc1c(OC)c(OC)cc3c1[C@H](C2)N(C)CC3 [Tet, tetrandrine]
time-dependent degradation of STING induced by DMXAA [1]: significantly attenuated
IFNB1 and ISGs gene expression [2]: significantly increased
expression of genes involved in cholesterol synthesis (SREBF2, HMGCR, SQLE, SREBP1C, DHCR24, DHCR7, FASN) and absorption (LDLR) [3]: increased expression
expression of genes related to cholesterol transport (ABCA1, ABCG1), oxidation (CYP27A1, CYP46A1) or esterification (ACAT1, ACAT2) [3]: did not affect the expression
pEC50 [4]: 5.80
NPC1 and STING expression in lysosomal microdomains [5]: enhanced NPC1 and STING expression in lysosomal microdomains after 6 hours
antiviral effect on VSV entry ([6]; MβCD pretreatment (cholesterol depleted)): abolished
antiviral effect on VSV entry ([6]; cholesterol supplementation using MβCD-cholesterol): restored inhibition
Ifnb1 and ISGs mRNA levels in vivo [7]: increased Ifnb1 and ISGs mRNA levels in vivo, particularly in lungs and livers
pEC50 [8]: 6.64
